Results reported in ChEMBL document CHEMBL4261547, “Bitopic fluorescent antagonists of the A2A adenosine receptor based on pyrazolo[4,3-e][1,2,4]triazolo[1,5-c]pyrimidin-5-amine functionalized congeners” (Medchemcomm, 2017).

Molecular target: T1, Adenosine receptor A1 (Homo sapiens) (UniProt P30542)
T1 sequence (whole entry): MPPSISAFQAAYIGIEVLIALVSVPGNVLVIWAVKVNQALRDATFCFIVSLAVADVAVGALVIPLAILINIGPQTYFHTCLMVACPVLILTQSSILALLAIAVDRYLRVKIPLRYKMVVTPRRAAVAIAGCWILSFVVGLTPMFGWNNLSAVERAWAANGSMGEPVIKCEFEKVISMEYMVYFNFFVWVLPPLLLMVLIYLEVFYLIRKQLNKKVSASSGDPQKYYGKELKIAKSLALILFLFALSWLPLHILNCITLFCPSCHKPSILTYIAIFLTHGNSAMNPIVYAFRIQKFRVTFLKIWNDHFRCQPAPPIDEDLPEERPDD
Assay: Binding affinity to recombinant human adenosine receptor A1 expressed in HEK293 cell membranes at 50 to 200 nM after 1 hr by FACS analysis relative to control

Activity: < 25%
Structure (SMILES): Nc1nc2c(cnn2CCCc2ccc(OCC(=O)NCCCCNC(=O)CCCCCNC(=O)COc3ccc(/C=C/C4=[N+]5C(=Cc6ccc(-c7cccs7)n6[B-]5(F)F)C=C4)cc3)cc2)c2nc(-c3ccco3)nn12
